Source: EP0472573B1, “HERBICIDE RESISTANT MAIZE” (ZENECA LIMITED, priority 1989, dated 1990)

Target: ALS enzyme extracted from Mutant 10 (heterozygous)
Test: ALS enzyme assay, heterozygous Mutant 10
Assay type: biochemical, Zea mays
Conditions: ALS of heterozygous Mutant 10; read-out: ID50% (the source's name)
Description: (§1) Seeds of generation M₁BC₁ M₁BC₂ of the nine mutants were sprayed pre-emergence with the herbicide imazethapyr (PURSUIT) (Trade Mark) at a rate of 250 g/ha and grown in a growth chamber (16 hour day, 27°C; 8 hour night, 17°C). Plants were harvested after 11 days.
(§2) Four grams of leaf material were harvested from just above the first leaf axis and ground in a mortar and pestle in 20ml of a solution containing 40mM Tricine (Trade Mark), 10mM EDTA, 5mM pyruvate, 80 »M flavin adenine dinucleotide (FAD), 1mM dithiothreitol (DTT), pH 8, plus 0.8g Polyclar AT. The homogenate was pressed through four layers of muslin and centrifuged at 30,000g for 20 minutes.
(§3) The supernatant was brought to 65% saturation with ammonium sulphate, left to precipitate for 30 minutes and then centrifuged at 30.000g for 20 minutes. The pellet was resuspended in 2.5ml of 40mM Tricine, 10mM EDTA, 5mM pyruvate, 80»M FAD, 25% (v/v) glycerol, 1mM DTT, pH 8, and desalted into 3.5ml of 40mM Tricine, 10mM EDTA, 25% (v/v) glycerol, 1mM DTT, pH 8.
(§4) One hundred microlitres of the enzyme extract was used for each assay. Final reagent concentrations were: 120mM Tricine, 50mM pyruvate, 10mM MgCl₂, […], 93»M thiamine pyrophosphate (TPP), pH 8, in the presence or absence of a herbicide of interest, in a volume of 750 »l. Incubations were carried out at 37°C for 30 minutes. Reactions were stopped with 250»l of 1.84M sulphuric acid, and decarboxylation of the acetolactate carried out at 37°C for 75 minutes, or at 60°C for 30 minutes. Assay blanks had sulphuric acid added prior to the enzyme extract. To the samples and blanks 650»l of α-naphthol in 2.73M NaOH/0.16%(w/v) creatine were added followed by incubation at 37°C for 30 minutes. After centrifugation at 30,000g the optical density of the supernatant was read at 540nm.
(§5) The assay procedure described was carried out on ALS enzyme extracted from each of the nine mutants for the following herbicides: imazethapyr (PURSUIT) imazapyr (ARSENAL) imazaquin (SCEPTER) chlorsulfuron (GLEAN) chlorimuron (CLASSIC) […] (HARMONY) The enzyme activity graphs are given as Figures 3 to 8. In addition, homozygous lines of mutants 1 and 2 which were selected from generation M₁BC₁S₂, were also tested against the same group of herbicides and against representatives of the triazolopyrimidines and phenoxypyrimidines. The chemical structures of these herbicides are shown in Figure 2 of the accompanying drawings.
(§6) From the enzyme assay data it is possible to derive, as a measure of the degree of inhibition the factor ID50% for each mutant and for each herbicide. This factor is indicative of the herbicide concentration which gives 50% inhibition of the ALS activity in comparison with the wild-type control. It is also possible to derive the fold increase in resistance.

Structure (SMILES) | IC50 [nM]
COc1cc(Cl)nc(NC(=O)NS(=O)(=O)c2ccccc2C(=O)O)n1 [Chlorimuron, chlorimuron] | 17
COc1nc(C)nc(NC(=O)NS(=O)(=O)c2ccccc2Cl)n1 [Chlorsulfuron, chlorsulfuron] | 35
CC(C)C1(C)N=C(c2nc3ccccc3cc2C(=O)O)NC1=O (centres unmarked) [Imazaquin, imazaquin] | 7000
CCc1cnc(C2=NC(=O)C(C)(C(C)C)N2)c(C(=O)O)c1 (centres unmarked) [Imazethapyr, 5-ethyl-2-(5-iso-propyl-5-methyl-4-oxo-2-imidazolin-2-yl) nicotinic acid] | 15000

Same assay, conditions: Mutant 10; groups Strong, Intermediate, Weak, Zero

Structure (SMILES) | resistance group, Enzyme Assay
COc1cc(Cl)nc(NC(=O)NS(=O)(=O)c2ccccc2C(=O)O)n1 [Chlorimuron, chlorimuron] | Intermediate
COc1nc(C)nc(NC(=O)NS(=O)(=O)c2ccccc2Cl)n1 [Chlorsulfuron, chlorsulfuron] | Weak
CC(C)C1(C)N=C(c2nc3ccccc3cc2C(=O)O)NC1=O (centres unmarked) [Imazaquin, imazaquin] | Weak
CCc1cnc(C2=NC(=O)C(C)(C(C)C)N2)c(C(=O)O)c1 (centres unmarked) [Imazethapyr, 5-ethyl-2-(5-iso-propyl-5-methyl-4-oxo-2-imidazolin-2-yl) nicotinic acid] | Intermediate

Same assay, conditions: fold increase in resistance vs wild type, heterozygous Mutant 10; 30 min

Structure (SMILES) | Fold Increase
COc1cc(Cl)nc(NC(=O)NS(=O)(=O)c2ccccc2C(=O)O)n1 [Chlorimuron, chlorimuron] | 5
COc1nc(C)nc(NC(=O)NS(=O)(=O)c2ccccc2Cl)n1 [Chlorsulfuron, chlorsulfuron] | 2
CC(C)C1(C)N=C(c2nc3ccccc3cc2C(=O)O)NC1=O (centres unmarked) [Imazaquin, imazaquin] | 12
CCc1cnc(C2=NC(=O)C(C)(C(C)C)N2)c(C(=O)O)c1 (centres unmarked) [Imazethapyr, 5-ethyl-2-(5-iso-propyl-5-methyl-4-oxo-2-imidazolin-2-yl) nicotinic acid] | 10

Target: ALS enzyme extracted from Mutant 7 (heterozygous)
Test: ALS enzyme assay, heterozygous Mutant 7
Assay type: biochemical, Zea mays
Conditions: ALS of heterozygous Mutant 7; read-out: ID50% (the source's name)
Description: as §1, §2, §3, §4, §5, §6

Structure (SMILES) | IC50 [nM]
COc1cc(Cl)nc(NC(=O)NS(=O)(=O)c2ccccc2C(=O)O)n1 [Chlorimuron, chlorimuron] | 5
COc1nc(C)nc(NC(=O)NS(=O)(=O)c2ccccc2Cl)n1 [Chlorsulfuron, chlorsulfuron] | 8
CC(C)C1(C)N=C(c2nc3ccccc3cc2C(=O)O)NC1=O (centres unmarked) [Imazaquin, imazaquin] | 1000
CCc1cnc(C2=NC(=O)C(C)(C(C)C)N2)c(C(=O)O)c1 (centres unmarked) [Imazethapyr, 5-ethyl-2-(5-iso-propyl-5-methyl-4-oxo-2-imidazolin-2-yl) nicotinic acid] | 4000

Same assay, conditions: Mutant 7; groups Strong, Intermediate, Weak, Zero

Structure (SMILES) | resistance group, Enzyme Assay
COc1cc(Cl)nc(NC(=O)NS(=O)(=O)c2ccccc2C(=O)O)n1 [Chlorimuron, chlorimuron] | Weak
COc1nc(C)nc(NC(=O)NS(=O)(=O)c2ccccc2Cl)n1 [Chlorsulfuron, chlorsulfuron] | Zero
CC(C)C1(C)N=C(c2nc3ccccc3cc2C(=O)O)NC1=O (centres unmarked) [Imazaquin, imazaquin] | Weak
CCc1cnc(C2=NC(=O)C(C)(C(C)C)N2)c(C(=O)O)c1 (centres unmarked) [Imazethapyr, 5-ethyl-2-(5-iso-propyl-5-methyl-4-oxo-2-imidazolin-2-yl) nicotinic acid] | Weak

Same assay, conditions: fold increase in resistance vs wild type, heterozygous Mutant 7; 30 min

Structure (SMILES) | Fold Increase
COc1cc(Cl)nc(NC(=O)NS(=O)(=O)c2ccccc2C(=O)O)n1 [Chlorimuron, chlorimuron] | 1
COc1nc(C)nc(NC(=O)NS(=O)(=O)c2ccccc2Cl)n1 [Chlorsulfuron, chlorsulfuron] | 1
CC(C)C1(C)N=C(c2nc3ccccc3cc2C(=O)O)NC1=O (centres unmarked) [Imazaquin, imazaquin] | 2
CCc1cnc(C2=NC(=O)C(C)(C(C)C)N2)c(C(=O)O)c1 (centres unmarked) [Imazethapyr, 5-ethyl-2-(5-iso-propyl-5-methyl-4-oxo-2-imidazolin-2-yl) nicotinic acid] | 3

Tested on: Mutant 6 plants
Test: Cross-resistance testing (glasshouse dose response), Mutant 6
Assay type: in vivo, Zea mays
Conditions: pre-emergence spray, assessed after four weeks growth
Source text: (§7) The seeds used in this screen were populations of mixed tolerant and sensitive seed, segregating 1:1, derived from each of the heterogygous, tolerant mutants crossed with homozygous, sensitive UE95. All of the tolerant progeny are heterozygous for tolerance. Each of the mutants identified above were used except mutant 4. The controls were seed of self-pollinated UE95 which was pollinated in the same year as the tolerant lines.
(§8) One litre of compost was placed in each seed tray of dimensions 19cm x 11cm x 5cm deep and firmed down flat. Two furrows 1 cm deep were drawn in the surface of the compost in each tray and six seeds were sown in each furrow (total twelve seeds per tray). Some trays were sown with 24 seeds, in which case three furrows were made and 8 seeds sown per furrow.
(§9) In each test each tray contained either the seed of one mutant or of the UE95 control for each herbicide application rate and for the untreated control.
(§10) Five different types of ALS-inhibitor herbicides were tested on the mutants plus imazethapyr (PURSUIT) as a comparison. Four rates of each were applied; approximately 0.1x, 0.5x, 1x and 4x the estimated field rates for each herbicide. The rates are the same for mutant 3 to 10 but higher rates for chlorimuron (CLASSIC) and lower rates for chlorsulfuron (GLEAN) were applied to mutants 1 and 2.
(§11) The rates of application used in the screening tests were as follows: chlorimuron (CLASSIC) 4,20,40,160 g/Ha (mutants 1 and 2); and, 8,40,80,320 g/Ha (mutants 3 to 10); chlorsulfuron (GLEAN) 5,25,50,200 g/Ha (mutants 1 and 2); and, 1,5,10,40 g/Ha (mutants 3 to 10); imazaquin (SCEPTER) 30,150,300,1200 g/Ha; triazolopyrimidine 5,25,50,200 g/Ha; phenoxypyrimidine 10,50,100,400 g/Ha; and, imazethapyr (PURSUIT) 30,150,300,1200 g/Ha The triazolopyrimidine and phenoxypyrimidine were formulated in an adjuvant wetting agent known as JF5969 and diluted with water to make a final concentration of 10% JF5969. The remaining compounds were diluted with water only.
(§12) The spray jet and parameters were as decribed above under "SCREENING". After spraying, the seeds were covered with 0.5 litre of compost and firmed down flat (2.5cm covering) and grown under the conditions described under "SCREENING" above.
(§13) Visual assessments were made of the plants after four weeks growth. Each plant was scored on a scale of zero to 5 and the height measured from soil surface to the tallest leaf tip. The scoring scale was as follows: 0 - 0 to 10% damage (little or no herbicidal effect) 1 - 11 to 25% damage 2 - 26 to 50% damage 3 - 51 to […] 4 - 81 to 95% damage 5 - 96 to 100% damage (complete death of the plant) In carrying out these assessments, plants which were obviously of the sensitive phenotype were ignored (approximately 50% of the plants). […]

Structure (SMILES) | resistance group, Dose Response
COc1cc(Cl)nc(NC(=O)NS(=O)(=O)c2ccccc2C(=O)O)n1 [Chlorimuron, chlorimuron] | Zero
COc1nc(C)nc(NC(=O)NS(=O)(=O)c2ccccc2Cl)n1 [Chlorsulfuron, chlorsulfuron] | Zero
CC(C)C1(C)N=C(c2nc3ccccc3cc2C(=O)O)NC1=O (centres unmarked) [Imazaquin, imazaquin] | Weak
CCc1cnc(C2=NC(=O)C(C)(C(C)C)N2)c(C(=O)O)c1 (centres unmarked) [Imazethapyr, 5-ethyl-2-(5-iso-propyl-5-methyl-4-oxo-2-imidazolin-2-yl) nicotinic acid] | Intermediate

Target: ALS (acetolactate synthase), Wild type
Test: ALS enzyme assay, wild-type control
Assay type: biochemical, Zea mays
Conditions: herbicide concentration giving 50% inhibition of ALS activity, read-out: ID50% (the source's name)
Description: as §1, §2, §3, §4, §5, §6

Structure (SMILES) | IC50 [nM]
CC(C)C1(C)N=C(c2nc3ccccc3cc2C(=O)O)NC1=O (centres unmarked) [Imazaquin, imazaquin] | 600
CCc1cnc(C2=NC(=O)C(C)(C(C)C)N2)c(C(=O)O)c1 (centres unmarked) [Imazethapyr, 5-ethyl-2-(5-iso-propyl-5-methyl-4-oxo-2-imidazolin-2-yl) nicotinic acid] | 1500

Same assay, conditions: read-out: ID50% (the source's name)

Structure (SMILES) | IC50 [nM]
COc1cc(Cl)nc(NC(=O)NS(=O)(=O)c2ccccc2C(=O)O)n1 [Chlorimuron, chlorimuron] | 3.7
COc1nc(C)nc(NC(=O)NS(=O)(=O)c2ccccc2Cl)n1 [Chlorsulfuron, chlorsulfuron] | 18.5

Tested on: Mutant 3 plants
Test: Cross-resistance testing (glasshouse dose response), Mutant 3
Assay type: in vivo, Zea mays
Conditions: pre-emergence spray, assessed after four weeks growth
Source text: as §7, §8, §9, §10, §11, §12, §13

Structure (SMILES) | resistance group, Dose Response
COc1cc(Cl)nc(NC(=O)NS(=O)(=O)c2ccccc2C(=O)O)n1 [Chlorimuron, chlorimuron] | Weak
COc1nc(C)nc(NC(=O)NS(=O)(=O)c2ccccc2Cl)n1 [Chlorsulfuron, chlorsulfuron] | Intermediate
CC(C)C1(C)N=C(c2nc3ccccc3cc2C(=O)O)NC1=O (centres unmarked) [Imazaquin, imazaquin] | Weak
CCc1cnc(C2=NC(=O)C(C)(C(C)C)N2)c(C(=O)O)c1 (centres unmarked) [Imazethapyr, 5-ethyl-2-(5-iso-propyl-5-methyl-4-oxo-2-imidazolin-2-yl) nicotinic acid] | Weak

Target: ALS extracted from leaves of MUTANT 2 (homozygous)
Test: ALS enzyme assay, homozygous Mutant 2
Assay type: biochemical, Zea mays
Conditions: ALS of homozygous Mutant 2; read-out: ID50% Mutant
Description: as §2, §3, §4, §5, §6

Structure (SMILES) | IC50 [nM]
COc1cc(Cl)nc(NC(=O)NS(=O)(=O)c2ccccc2C(=O)O)n1 [Chlorimuron, chlorimuron] | 20
COc1nc(C)nc(NC(=O)NS(=O)(=O)c2ccccc2Cl)n1 [Chlorsulfuron, chlorsulfuron] | 40
CC(C)C1(C)N=C(c2nc3ccccc3cc2C(=O)O)NC1=O (centres unmarked) [Imazaquin, imazaquin] | 40000
CCc1cnc(C2=NC(=O)C(C)(C(C)C)N2)c(C(=O)O)c1 (centres unmarked) [Imazethapyr, 5-ethyl-2-(5-iso-propyl-5-methyl-4-oxo-2-imidazolin-2-yl) nicotinic acid] | 400000

Same assay, conditions: fold increase in resistance vs wild type, homozygous Mutant 2; 30 min

Structure (SMILES) | Fold Increase
COc1cc(Cl)nc(NC(=O)NS(=O)(=O)c2ccccc2C(=O)O)n1 [Chlorimuron, chlorimuron] | 5.4
COc1nc(C)nc(NC(=O)NS(=O)(=O)c2ccccc2Cl)n1 [Chlorsulfuron, chlorsulfuron] | 2.2
CC(C)C1(C)N=C(c2nc3ccccc3cc2C(=O)O)NC1=O (centres unmarked) [Imazaquin, imazaquin] | 66
CCc1cnc(C2=NC(=O)C(C)(C(C)C)N2)c(C(=O)O)c1 (centres unmarked) [Imazethapyr, 5-ethyl-2-(5-iso-propyl-5-methyl-4-oxo-2-imidazolin-2-yl) nicotinic acid] | 267
